Results as given in ChEMBL document CHEMBL5727878, “Triazole furan compounds as agonists of the APJ receptor” (2020).

Target: T1, Apelin receptor (Homo sapiens, UniProt P35414)
T1 sequence (P35414 whole entry): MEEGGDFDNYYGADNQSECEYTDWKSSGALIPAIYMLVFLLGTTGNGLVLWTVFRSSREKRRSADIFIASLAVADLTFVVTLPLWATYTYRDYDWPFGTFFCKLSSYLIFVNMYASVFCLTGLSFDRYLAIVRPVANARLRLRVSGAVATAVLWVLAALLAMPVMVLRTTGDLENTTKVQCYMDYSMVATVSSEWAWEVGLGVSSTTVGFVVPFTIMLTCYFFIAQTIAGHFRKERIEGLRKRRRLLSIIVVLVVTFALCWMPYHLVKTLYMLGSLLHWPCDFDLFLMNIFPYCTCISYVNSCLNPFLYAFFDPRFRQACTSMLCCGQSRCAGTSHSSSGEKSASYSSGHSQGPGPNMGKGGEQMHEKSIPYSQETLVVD
Experiment: GTPγS Binding: The human APJ receptor was cloned by polymerase chain reaction and the gene encoding the receptor was subcloned in pFLAG-CMV-3 expression vector (Sigma, Saint Louis, Mo. USA) in-house at Amgen. A GTPγS binding assay was performed on membranes prepared from CHO cells stably expressing human APJ receptor. The optimum experimental conditions for the concentrations of GDP, MgCl2, and NaCl in the assay buffer were initially determined. The assay was performed in assay buffer [20 mM HEPES, pH 7.5, 5 mM MgCl2, and 0.1% (w/v) BSA with 200 mM NaCl, 3 μM GDP] and membranes expressing human APJ receptor/well along with WGA PS beads. The reaction was initiated by addition of 0.2 nM [35S]GTPγS in the absence or presence of various ligands and incubated at RT for 90 min. Nonspecific binding was determined in the presence of 100 μM GTPγS and was always less than 0.2% of total binding.

SMILES	EC50
COc1cccc(OC)c1-n1c(NS(=O)(=O)[C@H](C)[C@](C)(O)c2ncc(F)cn2)nnc1-c1ccc(C)o1 (single isomer, unassigned)	0.57 nM
COc1cccc(OC)c1-n1c(NS(=O)(=O)[C@@H](C)[C@H](O)c2cc3n(n2)CCCO3)nnc1-c1ccc(C)o1 (single isomer, unassigned)	1.2 nM
